Patent US11851406B2, “Positive allosteric modulators of the muscarinic acetylcholine receptor M1” (Vanderbilt University, priority 2018, dated 2023)

How the values were obtained:
human mAChR M1 [1] = target: T1, human mAChR M1 (Homo sapiens, UniProt P11229); experiment: mAChR M1 cell-based functional assay (calcium mobilization), agonist activity upon compound addition alone; conditions: CHO-K1 cells expressing hM1; for EC50: calcium mobilization upon compound addition, no acetylcholine; for Emax: compound alone, relative to the maximum for acetylcholine
T1 sequence (P11229 1-460): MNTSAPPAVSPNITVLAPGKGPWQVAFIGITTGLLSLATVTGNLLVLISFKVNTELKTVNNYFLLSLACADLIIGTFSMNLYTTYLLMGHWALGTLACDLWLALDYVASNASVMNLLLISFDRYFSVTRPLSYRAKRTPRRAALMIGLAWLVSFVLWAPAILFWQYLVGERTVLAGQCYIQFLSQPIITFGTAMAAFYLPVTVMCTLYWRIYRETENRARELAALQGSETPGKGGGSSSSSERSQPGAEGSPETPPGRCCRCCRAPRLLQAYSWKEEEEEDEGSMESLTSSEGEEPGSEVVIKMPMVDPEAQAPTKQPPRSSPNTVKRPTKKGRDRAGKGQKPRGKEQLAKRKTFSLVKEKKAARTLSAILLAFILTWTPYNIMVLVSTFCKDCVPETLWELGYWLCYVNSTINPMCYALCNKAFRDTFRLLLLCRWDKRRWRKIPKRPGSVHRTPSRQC
Text: (§1) Chinese hamster ovary (CHO-K1) cells stably expressing rat (r)M1 were purchased from the American Type Culture Collection and cultured according to their indicated protocol. CHO cells stably expressing human (h)M2, hM3, and hM5 were described previously (Levey, et al., 1991); hM1 and hM4 cDNAs were purchased from Missouri S&T cDNA Resource; rM4 cDNA was provided by T. I. Bonner (National Institutes of Health, Bethesda, Md.). rM2 and rM3 were cloned from a rat brain cDNA library and sequence verified. hM1, rM2, rM3, hM4, and rM4 cDNAs were used to stably transfect CHO-K1 cells purchased from the American Type Culture Collection using Lipofectamine2000. To make stable rM2, hM2, rM3, hM4, and rM4 cell lines for use in calcium mobilization assays, these cells also were stably transfected with a chimeric G-protein (Gqi5) (provided by B. R. Conklin, University of California, San Francisco) using Lipofectamine 2000. rM1, hM1, rM3, hM3, rM5, and hM5 cells were grown in Ham's F-12 medium containing 10% heat-inactivated fetal bovine serum (FBS), 20 mM HEPES, and 50 μg/mL G418 sulfate. rM2-Gqi5, hM2-Gqi5, and hM4-Gqi5 cells were grown in the same medium also containing 500 μg/mL Hygromycin B. Stable rM4-Gqi5 cells were grown in DMEM containing 10% heat-inactivated FBS, 20 mM HEPES, 400 μg/mL G418 sulfate, and 500 μg/mL Hygromycin B.
(§2) For high throughput measurement of agonist-evoked increases in intracellular calcium, CHO-K1 cells stably expressing muscarinic receptors were plated in growth medium lacking G418 and hygromycin at 15,000 cells/20 μL/well in Greiner 384-well black-walled, tissue culture (TC)-treated, clear-bottom plates (VWR). Cells were incubated overnight at 37° C. and 5% CO2. The next day, cells were washed using an ELX 405 (BioTek) with four washes (80 μL) of assay buffer then aspirated to 20 μL. Next, 20 μL of 16 μM Fluo-4/acetoxymethyl ester (Invitrogen, Carlsbad, Calif.) prepared as a 2.3 mM stock in DMSO and mixed in a 1:1 ratio with 10% (w/v) Pluronic F-127 and diluted in assay buffer was added to the wells and the cell plates were incubated for 50 min at 37° C. and 5% CO2. Dye was removed by washing with the ELX 405 (four 80 μL washes of assay buffer) then aspirated to 20 μL. Compound master plates were formatted in an 11 point CRC format (1:3 dilutions) in 100% DMSO with a starting concentration of 10 mM using the BRAVO liquid handler (Agilent). Test compound CRCs were then transferred to daughter plates (240 nL) using the Echo acoustic plate reformatter (Labcyte, Sunnyvale, Calif.) and then diluted into assay buffer (40 μL) to a 2× stock using a Thermo Fisher Combi (Thermo Fisher Scientific, Waltham, Mass.).
(§3) Calcium flux was measured using the Functional Drug Screening System (FDSS) 6000 (Hamamatsu Corporation, Tokyo, Japan) as an increase in the fluorescent static ratio. Compounds were applied to cells (20 μL, 2×) using the automated system of the FDSS 6000 at 4 s into the 300 s protocol and the data were collected at 1 Hz. At 144 s into the 300 s protocol, 10 μL of an EC20 concentration of the muscarinic receptor agonist acetylcholine was added (5×), followed by the addition of 12 μL an EC80 concentration of acetylcholine at the 230 s time point (5×). Agonist activity was analyzed as a concentration-dependent increase in calcium mobilization upon compound addition. Emax values for agonist activity are expressed relative to the maximum for acetylcholine. Positive allosteric modulator activity was analyzed as a concentration-dependent increase in the EC20 acetylcholine response. Antagonist activity was analyzed as a concentration-dependent decrease in the EC80 acetylcholine response. Concentration-response curves were generated using a four-parameter logistical equation in XLfit curve fitting software (IDBS, Bridgewater, N.J.) for Excel (Microsoft, Redmond, Wash.) or Prism (GraphPad Software, Inc., San Diego, Calif.).

human mAChR M1 [2] = target: T1, human mAChR M1; experiment: mAChR M1 cell-based functional assay (calcium mobilization), PAM activity: increase in the EC20 acetylcholine response; conditions: CHO-K1 cells expressing hM1; calcium flux (Fluo-4); potentiation of EC20 acetylcholine response
Text: as §1, §2, §3

Row | Structure (SMILES) | EC50 (human mAChR M1 [1]) [µM] | Emax (human mAChR M1 [1]) [%] | EC50 (human mAChR M1 [2]) [µM] | Emax (human mAChR M1 [2]) [%]
1 | Cc1nc(-c2ccc(Cc3cc(C(=O)N[C@H]4CCCC[C@@H]4O)nc(-n4cccn4)c3)cc2)co1 [Compound 22, N-((1S,2S)-2-hydroxycyclohexyl)-4-(4-(2-methyloxazol-4-yl)benzyl)-6-(1H-pyrazol-1-yl)picolinamide] | ≥ 10 | 11 | 0.634 | 86
2 | Cn1cc(-c2ccc(Cc3cc(C(=O)NC4CCOCC4(C)C)nc(-c4ccn(C)n4)c3)cn2)cn1 (stereo not drawn) [Compound 8, N-(3,3-dimethyltetrahydro-2H-pyran-4-yl)-6-(1-methyl-1H-pyrazol-3-yl)-4-((6-(1-methyl-1H-pyrazol-4-yl)pyridin-3-yl)methyl)picolinamide] | > 10 | < 5 | 8.01 | 75
3 | Cc1c(Cc2ccc(-c3ccn(C)n3)cc2)cc(C(=O)N[C@H]2CCOC[C@@H]2O)nc1-n1cccn1 [Compound 2, N-((3R,4S)-3-hydroxytetrahydro-2H-pyran-4-yl)-5-methyl-4-(4-(1-methyl-1H-pyrazol-3-yl)benzyl)-6-(1H-pyrazol-1-yl)picolinamide] | 7.15 | 25 | 0.317 | 78
4 | Cn1ccc(-c2ccc(Cc3cc(C(=O)N[C@H]4CCC[C@@H]4O)nc(-c4ccn(C)n4)c3)cc2)n1 [Compound 38, N-((1S,2S)-2-hydroxycyclopentyl)-6-(1-methyl-1H-pyrazol-3-yl)-4-(4-(1-methyl-1H-pyrazol-3-yl)benzyl)picolinamide] | > 10 | < 5 | 2.72 | 39
5 | Cc1c(Cc2ccc(-c3ccn(C)n3)cc2)cc(C(=O)NC2CC3(COC3)C2)nc1-c1ccn(C)n1 [Compound 11, 5-methyl-6-(1-methyl-1H-pyrazol-3-yl)-4-(4-(1-methyl-1H-pyrazol-3-yl)benzyl)-N-(2-oxaspiro[3.3]heptan-6-yl)picolinamide] | > 10 | < 5 | 4.72 | 88
6 | Cc1c(Cc2ccc(-n3cccn3)cc2)cc(C(=O)NC2CCOCC2)nc1-c1ccn(C)n1 [Compound 57, 4-(4-(1H-pyrazol-1-yl)benzyl)-5-methyl-6-(1-methyl-1H-pyrazol-3-yl)-N-(tetrahydro-2H-pyran-4-yl)picolinamide] | > 10 | < 5 | 5.7 | 81
7 | Cc1ccc(Cc2cc(C(=O)N[C@H]3CCCC[C@@H]3O)nc(-c3ccn(C)n3)c2C)cn1 [Compound 66, N-((1S,2S)-2-hydroxycyclohexyl)-5-methyl-6-(1-methyl-1H-pyrazol-3-yl)-4-((6-methylpyridin-3-yl)methyl)picolinamide] | > 10 | < 5 |  | 66
8 | Cc1nc(-c2ccc(Cc3cc(C(=O)N[C@H]4CCCC[C@@H]4O)nc(-n4cccn4)c3C)cc2)co1 [Compound 48, N-((1S,2S)-2-hydroxycyclohexyl)-5-methyl-4-(4-(2-methyloxazol-4-yl)benzyl)-6-(1H-pyrazol-1-yl)picolinamide] | 8.59 | 10 | 0.832 | 59
9 | Cn1cc(-c2ccc(Cc3cc(C(=O)NC4CCOCC4)nc(-c4ccn(C)n4)c3)cn2)cn1 [Compound 4, 6-(1-methyl-1H-pyrazol-3-yl)-4-((6-(1-methyl-1H-pyrazol-4-yl)pyridin-3-yl)methyl)-N-(tetrahydro-2H-pyran-4-yl)picolinamide] | > 10 | < 5 |  | 53
10 | Cc1nc(-c2ccc(Cc3cc(C(=O)NC4CCOCC4)nc(-n4cccn4)c3C)cc2)co1 [Compound 51, 5-methyl-4-(4-(2-methyloxazol-4-yl)benzyl)-6-(1H-pyrazol-1-yl)-N-(tetrahydro-2H-pyran-4-yl)picolinamide] | > 10 | < 5 |  | 69
11 | Cc1c(Cc2ccc(-n3cccn3)cc2)cc(C(=O)NC[C@@H]2CCCO2)nc1-c1ccn(C)n1 [Compound 62, (S)-4-(4-(1H-pyrazol-1-yl)benzyl)-5-methyl-6-(1-methyl-1H-pyrazol-3-yl)-N-((tetrahydrofuran-2-yl)methyl)picolinamide] | > 10 | < 5 | 4.63 | 77
12 | Cn1cc(-c2ccc(Cc3cc(C(=O)N[C@H]4CCCC[C@@H]4O)nc(-n4cccn4)c3)cn2)cn1 [Compound 20, N-((1S,2S)-2-hydroxycyclohexyl)-4-((6-(1-methyl-1H-pyrazol-4-yl)pyridin-3-yl)methyl)-6-(1H-pyrazol-1-yl)picolinamide] | > 10 | < 5 | 2.25 | 61
13 | Cc1c(Cc2ccc(-c3ccn(C)n3)nc2)cc(C(=O)N[C@H]2CCOC[C@@H]2O)nc1-n1cccn1 [Compound 44, N-((3R,4S)-3-hydroxytetrahydro-2H-pyran-4-yl)-5-methyl-4-((6-(1-methyl-1H-pyrazol-3-yl)pyridin-3-yl)methyl)-6-(1H-pyrazol-1-yl)picolinamide] | ≥ 10 | 23 | 1.09 | 83
14 | Cc1ccc(Cc2cc(C(=O)N[C@H]3CCC[C@@H]3O)nc(-c3ccn(C)n3)c2C)cn1 [Compound 67, N-((1S,2S)-2-hydroxycyclopentyl)-5-methyl-6-(1-methyl-1H-pyrazol-3-yl)-4-((6-methylpyridin-3-yl)methyl)picolinamide] | > 10 | < 5 |  | 38
15 | Cn1ccc(-c2ccc(Cc3cc(C(=O)NC4CC5(COC5)C4)nc(-n4cccn4)c3)cc2)n1 [Compound 31, 4-(4-(1-methyl-1H-pyrazol-3-yl)benzyl)-6-(1H-pyrazol-1-yl)-N-(2-oxaspiro[3.3]heptan-6-yl)picolinamide] | > 10 | < 5 |  | 56
16 | Cn1ccc(-c2ccc(Cc3cc(C(=O)N[C@H]4CCC[C@@H]4O)nc(-n4cccn4)c3)cc2)n1 [Compound 33, N-((1S,2S)-2-hydroxycyclopentyl)-4-(4-(1-methyl-1H-pyrazol-3-yl)benzyl)-6-(1H-pyrazol-1-yl)picolinamide] | > 10 | < 5 | 5.51 | 69
17 | Cn1cc(-c2cc(Cc3ccc(-c4ccn(C)n4)cc3)cc(C(=O)N[C@H]3CCOC[C@@H]3O)n2)cn1 [Compound 39, N-((3R,4S)-3-hydroxytetrahydro-2H-pyran-4-yl)-4-(4-(1-methyl-1H-pyrazol-3-yl)benzyl)-6-(1-methyl-1H-pyrazol-4-yl)picolinamide] | > 10 | < 5 | 2.85 | 57
